Laboratory results: patent US20190337978A1, “CRYSTALLIZATION METHODS USING FUNCTIONALIZED NANOPOROUS MATRICES AND RELATED SYSTEMS” (Massachusetts Institute of Technology, priority 2018, published 2019)
≈ marks a conversion by molar mass, not a printed value. Counter-ions that a name gives are not always drawn.

Legend:
[1] = Capillary XRPD with Zorbax, critical minimum concentration for crystallization; settings: isopropyl alcohol solutions in capillaries containing functionalized Zorbax
[2] = Batch crystallization with Zorbax, mother liquor concentration via HPLC; type: physicochemical; settings: after batch crystallization of saturated isopropyl alcohol solution with Zorbax, stirred 6 h at 25° C.; effective solubility
[3] = physchem; settings: 25 °C, thermodynamic from solid

In the case of CN(C)CCOC(c1ccccc1)c1ccccc1 [Diphenhydramine hydrochloride], the “Concentration range from XRPD (critical minimum concentration for crystallization to occur)” value (“Concentration range from XRPD” for short) [1] is reported as 25 to 27 mg/mL.

For NC(=O)c1cccnc1 [Nicotinamide], the “Concentration range from XRPD” value [1] was 30 to 35 mg/mL, the Mother liquor concentration [2] was 33.2 mg/mL and the solubility ([3]; organic solvent or mixture) was 46.5 mg/mL (≈ 381 mM).

With CC(=O)Oc1ccccc1C(=O)O [Aspirin] the “Concentration range from XRPD” value [1] was 65 to 70 mg/mL, the Mother liquor concentration [2] was 66.8 mg/mL and the solubility ([3]; organic solvent or mixture) was 90 mg/mL (≈ 500 mM).

With CC(=O)Nc1ccc(O)cc1 [Acetaminophen] the solubility ([3]; water) was 15.5 mg/mL (≈ 103 mM).
